According to ChEMBL document CHEMBL5543145, “Discovery of the First-in-Class G9a/GLP PROTAC Degrader” (J Med Chem, 2024):

Target: T1, von Hippel-Lindau disease tumor suppressor/Histone-lysine N-methyltransferase EHMT1 (Homo sapiens, UniProt Q9H9B1+P40337)
Test: PROTAC activity at GLP/VHL in human 22Rv1 cells assessed as induction of GLP degradation at 0.3 uM incubated for 24 hrs by Western blot analysis relative to control
Assay type: cell-based

T1 sequence (P40337 whole entry partner): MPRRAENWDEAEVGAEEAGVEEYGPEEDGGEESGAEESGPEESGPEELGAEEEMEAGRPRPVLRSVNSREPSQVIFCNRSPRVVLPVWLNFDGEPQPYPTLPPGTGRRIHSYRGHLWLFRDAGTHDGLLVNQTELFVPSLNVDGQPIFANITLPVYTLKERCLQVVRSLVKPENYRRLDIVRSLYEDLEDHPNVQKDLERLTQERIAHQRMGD
T1 sequence (Q9H9B1 2-1298 limits assumed): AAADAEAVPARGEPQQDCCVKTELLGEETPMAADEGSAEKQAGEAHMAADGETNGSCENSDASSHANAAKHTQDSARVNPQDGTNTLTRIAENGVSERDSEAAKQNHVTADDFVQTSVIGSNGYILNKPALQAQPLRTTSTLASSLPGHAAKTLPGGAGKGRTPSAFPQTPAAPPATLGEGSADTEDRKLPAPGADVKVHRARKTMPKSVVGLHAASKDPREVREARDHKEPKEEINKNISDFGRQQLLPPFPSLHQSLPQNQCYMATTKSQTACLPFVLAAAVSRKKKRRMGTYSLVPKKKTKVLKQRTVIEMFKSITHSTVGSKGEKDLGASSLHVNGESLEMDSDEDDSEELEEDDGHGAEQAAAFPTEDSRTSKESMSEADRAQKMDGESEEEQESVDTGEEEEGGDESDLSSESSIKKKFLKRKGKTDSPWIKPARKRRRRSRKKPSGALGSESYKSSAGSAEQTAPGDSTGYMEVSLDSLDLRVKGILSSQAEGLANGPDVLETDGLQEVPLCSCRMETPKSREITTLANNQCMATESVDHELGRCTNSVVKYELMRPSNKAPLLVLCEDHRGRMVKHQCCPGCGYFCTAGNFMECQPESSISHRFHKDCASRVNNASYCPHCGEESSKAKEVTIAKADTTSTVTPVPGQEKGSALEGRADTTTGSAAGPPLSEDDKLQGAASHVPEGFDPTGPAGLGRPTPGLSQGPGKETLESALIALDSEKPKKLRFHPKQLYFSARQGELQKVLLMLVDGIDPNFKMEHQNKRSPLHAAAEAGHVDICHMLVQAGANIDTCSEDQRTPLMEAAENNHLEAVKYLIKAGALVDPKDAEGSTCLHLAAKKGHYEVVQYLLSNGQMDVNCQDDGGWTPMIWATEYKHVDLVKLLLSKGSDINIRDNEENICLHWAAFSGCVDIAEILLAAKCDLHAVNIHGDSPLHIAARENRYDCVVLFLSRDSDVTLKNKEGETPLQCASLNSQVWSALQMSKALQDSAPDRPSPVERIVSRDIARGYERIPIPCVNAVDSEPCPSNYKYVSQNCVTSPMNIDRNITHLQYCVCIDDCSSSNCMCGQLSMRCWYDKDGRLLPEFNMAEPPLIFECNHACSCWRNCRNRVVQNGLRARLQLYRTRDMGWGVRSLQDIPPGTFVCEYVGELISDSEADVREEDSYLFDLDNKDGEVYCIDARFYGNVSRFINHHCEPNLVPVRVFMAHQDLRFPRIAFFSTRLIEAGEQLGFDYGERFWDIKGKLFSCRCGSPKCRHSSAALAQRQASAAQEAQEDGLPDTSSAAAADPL

`COc1cc2c(NC3CCN(CCCC(=O)NCCCC(=O)N[C@H](C(=O)N4C[C@H](O)C[C@H]4C(=O)NCc4ccc(-c5scnc5C)cc4)C(C)(C)C)CC3)nc(N3CCC(F)(F)CC3)nc2cc1OCCCN1CCCC1` and `COc1cc2c(NC3CCN(CCCC(=O)NCCCCC(=O)N[C@H](C(=O)N4C[C@H](O)C[C@H]4C(=O)NCc4ccc(-c5scnc5C)cc4)C(C)(C)C)CC3)nc(N3CCC(F)(F)CC3)nc2cc1OCCCN1CCCC1` cannot be ordered by Emax: < 3% for the first, < 9% for the second.

`COc1cc2c(NC3CCN(CCCC(=O)NCCOCCOCCC(=O)N[C@H](C(=O)N4C[C@H](O)C[C@H]4C(=O)NCc4ccc(-c5scnc5C)cc4)C(C)(C)C)CC3)nc(N3CCC(F)(F)CC3)nc2cc1OCCCN1CCCC1` and `COc1cc2c(NC3CCN(CCCC(=O)NCCOCCOCCOCCC(=O)N[C@H](C(=O)N4C[C@H](O)C[C@H]4C(=O)NCc4ccc(-c5scnc5C)cc4)C(C)(C)C)CC3)nc(N3CCC(F)(F)CC3)nc2cc1OCCCN1CCCC1` cannot be ordered by Emax: < 7% for the first, < 16% for the second.

First: COc1cc2c(NC3CCN(CCCC(=O)NCCCCCCCCCCC(=O)N[C@H](C(=O)N4C[C@H](O)C[C@H]4C(=O)NCc4ccc(-c5scnc5C)cc4)C(C)(C)C)CC3)nc(N3CCC(F)(F)CC3)nc2cc1OCCCN1CCCC1
Second: COc1cc2c(NC3CCN(CCCC(=O)NCCCCCCCC(=O)N[C@H](C(=O)N4C[C@H](O)C[C@H]4C(=O)NCc4ccc(-c5scnc5C)cc4)C(C)(C)C)CC3)nc(N3CCC(F)(F)CC3)nc2cc1OCCCN1CCCC1
The Emax of the first is higher: 69% for the first, < 28% for the second.

For `COc1cc2c(NC3CCN(CCCC(=O)NCCCCCCC(=O)N[C@H](C(=O)N4C[C@H](O)C[C@H]4C(=O)NCc4ccc(-c5scnc5C)cc4)C(C)(C)C)CC3)nc(N3CCC(F)(F)CC3)nc2cc1OCCCN1CCCC1`, the Emax was < 7%.

Target: T2, von Hippel-Lindau disease tumor suppressor/Histone-lysine N-methyltransferase EHMT2 (Homo sapiens, UniProt Q96KQ7+P40337)
Test: PROTAC activity at G9a/VHL in human 22Rv1 cells assessed as induction of G9a degradation at 3 uM incubated for 24 hrs by Western blot analysis relative to control
Assay type: cell-based

T2 sequence (P40337 whole entry partner): as the sequence (P40337 whole entry partner) above
T2 sequence (Q96KQ7 2-1210 limits assumed): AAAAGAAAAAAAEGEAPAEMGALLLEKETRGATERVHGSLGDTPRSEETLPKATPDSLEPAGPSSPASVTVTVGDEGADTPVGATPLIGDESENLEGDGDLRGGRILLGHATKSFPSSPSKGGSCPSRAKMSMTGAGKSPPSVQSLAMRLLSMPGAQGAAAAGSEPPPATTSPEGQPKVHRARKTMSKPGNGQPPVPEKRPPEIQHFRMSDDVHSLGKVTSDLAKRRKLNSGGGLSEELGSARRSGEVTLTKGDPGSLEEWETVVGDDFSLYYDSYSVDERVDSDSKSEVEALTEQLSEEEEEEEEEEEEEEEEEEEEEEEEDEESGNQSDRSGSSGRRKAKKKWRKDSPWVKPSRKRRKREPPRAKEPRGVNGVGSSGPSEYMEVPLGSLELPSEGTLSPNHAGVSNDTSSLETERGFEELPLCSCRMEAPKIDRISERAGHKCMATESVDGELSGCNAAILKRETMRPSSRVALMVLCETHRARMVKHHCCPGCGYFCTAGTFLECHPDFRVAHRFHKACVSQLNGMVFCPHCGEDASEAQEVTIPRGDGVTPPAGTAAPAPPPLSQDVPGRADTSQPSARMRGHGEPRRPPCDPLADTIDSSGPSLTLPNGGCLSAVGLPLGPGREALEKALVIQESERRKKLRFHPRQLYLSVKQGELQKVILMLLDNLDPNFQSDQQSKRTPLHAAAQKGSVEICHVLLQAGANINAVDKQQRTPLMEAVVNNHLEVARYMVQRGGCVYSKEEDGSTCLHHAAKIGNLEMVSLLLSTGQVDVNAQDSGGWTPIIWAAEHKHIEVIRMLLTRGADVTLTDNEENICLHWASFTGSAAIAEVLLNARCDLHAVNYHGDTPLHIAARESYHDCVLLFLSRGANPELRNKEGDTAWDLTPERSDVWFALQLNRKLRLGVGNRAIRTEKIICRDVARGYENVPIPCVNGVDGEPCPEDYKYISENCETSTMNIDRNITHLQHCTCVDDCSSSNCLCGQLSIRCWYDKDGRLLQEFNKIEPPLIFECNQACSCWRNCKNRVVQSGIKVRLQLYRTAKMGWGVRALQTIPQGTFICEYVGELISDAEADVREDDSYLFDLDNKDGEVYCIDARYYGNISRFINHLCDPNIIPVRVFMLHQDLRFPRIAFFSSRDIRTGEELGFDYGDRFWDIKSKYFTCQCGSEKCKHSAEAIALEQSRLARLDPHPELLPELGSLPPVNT

`COc1cc2c(NC3CCN(CCCC(=O)NCCOCCOCCC(=O)N[C@H](C(=O)N4C[C@H](O)C[C@H]4C(=O)NCc4ccc(-c5scnc5C)cc4)C(C)(C)C)CC3)nc(N3CCC(F)(F)CC3)nc2cc1OCCCN1CCCC1` and `COc1cc2c(NC3CCN(CCCC(=O)NCCCCC(=O)N[C@H](C(=O)N4C[C@H](O)C[C@H]4C(=O)NCc4ccc(-c5scnc5C)cc4)C(C)(C)C)CC3)nc(N3CCC(F)(F)CC3)nc2cc1OCCCN1CCCC1` cannot be ordered by Emax: < 13% for the first, < 11% for the second.

`COc1cc2c(NC3CCN(CCCC(=O)NCCCCCCCCCCC(=O)N[C@H](C(=O)N4C[C@H](O)C[C@H]4C(=O)NCc4ccc(-c5scnc5C)cc4)C(C)(C)C)CC3)nc(N3CCC(F)(F)CC3)nc2cc1OCCCN1CCCC1` and `COc1cc2c(NC3CCN(CCCC(=O)NCCCCCCCC(=O)N[C@H](C(=O)N4C[C@H](O)C[C@H]4C(=O)NCc4ccc(-c5scnc5C)cc4)C(C)(C)C)CC3)nc(N3CCC(F)(F)CC3)nc2cc1OCCCN1CCCC1` cannot be ordered by Emax: < 92% for the first, 75% for the second.

With `COc1cc2c(NC3CCN(CCCC(=O)NCCCCCCC(=O)N[C@H](C(=O)N4C[C@H](O)C[C@H]4C(=O)NCc4ccc(-c5scnc5C)cc4)C(C)(C)C)CC3)nc(N3CCC(F)(F)CC3)nc2cc1OCCCN1CCCC1` the Emax was < 30%.

Target: T2, von Hippel-Lindau disease tumor suppressor/Histone-lysine N-methyltransferase EHMT2
Test: PROTAC activity at G9a/VHL in human 22Rv1 cells assessed as induction of G9a degradation at 0.3 uM incubated for 24 hrs by Western blot analysis relative to control
Assay type: cell-based

`COc1cc2c(NC3CCN(CCCC(=O)NCCCC(=O)N[C@H](C(=O)N4C[C@H](O)C[C@H]4C(=O)NCc4ccc(-c5scnc5C)cc4)C(C)(C)C)CC3)nc(N3CCC(F)(F)CC3)nc2cc1OCCCN1CCCC1` and `COc1cc2c(NC3CCN(CCCC(=O)NCCCCCCC(=O)N[C@H](C(=O)N4C[C@H](O)C[C@H]4C(=O)NCc4ccc(-c5scnc5C)cc4)C(C)(C)C)CC3)nc(N3CCC(F)(F)CC3)nc2cc1OCCCN1CCCC1` cannot be ordered by Emax: < 8% for the first, < 10% for the second.

`COc1cc2c(NC3CCN(CCCC(=O)NCCCCCCCCCCC(=O)N[C@H](C(=O)N4C[C@H](O)C[C@H]4C(=O)NCc4ccc(-c5scnc5C)cc4)C(C)(C)C)CC3)nc(N3CCC(F)(F)CC3)nc2cc1OCCCN1CCCC1` was tested, and the Emax was 79%.

Target: T1, von Hippel-Lindau disease tumor suppressor/Histone-lysine N-methyltransferase EHMT1
Test: PROTAC activity at GLP/VHL in human 22Rv1 cells assessed as induction of GLP degradation at 3 uM incubated for 24 hrs by Western blot analysis relative to control
Assay type: cell-based

First: COc1cc2c(NC3CCN(CCCC(=O)NCCCC(=O)N[C@H](C(=O)N4C[C@H](O)C[C@H]4C(=O)NCc4ccc(-c5scnc5C)cc4)C(C)(C)C)CC3)nc(N3CCC(F)(F)CC3)nc2cc1OCCCN1CCCC1
Second: COc1cc2c(NC3CCN(CCCC(=O)NCCCCC(=O)N[C@H](C(=O)N4C[C@H](O)C[C@H]4C(=O)NCc4ccc(-c5scnc5C)cc4)C(C)(C)C)CC3)nc(N3CCC(F)(F)CC3)nc2cc1OCCCN1CCCC1
The Emax of the first is higher: 21% for the first, < 11% for the second.

`COc1cc2c(NC3CCN(CCCC(=O)NCCOCCOCCC(=O)N[C@H](C(=O)N4C[C@H](O)C[C@H]4C(=O)NCc4ccc(-c5scnc5C)cc4)C(C)(C)C)CC3)nc(N3CCC(F)(F)CC3)nc2cc1OCCCN1CCCC1` and `COc1cc2c(NC3CCN(CCCC(=O)NCCOCCOCCOCCC(=O)N[C@H](C(=O)N4C[C@H](O)C[C@H]4C(=O)NCc4ccc(-c5scnc5C)cc4)C(C)(C)C)CC3)nc(N3CCC(F)(F)CC3)nc2cc1OCCCN1CCCC1` cannot be ordered by Emax: 21% for the first, < 27% for the second.

`COc1cc2c(NC3CCN(CCCC(=O)NCCCCCCCCCCC(=O)N[C@H](C(=O)N4C[C@H](O)C[C@H]4C(=O)NCc4ccc(-c5scnc5C)cc4)C(C)(C)C)CC3)nc(N3CCC(F)(F)CC3)nc2cc1OCCCN1CCCC1` and `COc1cc2c(NC3CCN(CCCC(=O)NCCCCCCCC(=O)N[C@H](C(=O)N4C[C@H](O)C[C@H]4C(=O)NCc4ccc(-c5scnc5C)cc4)C(C)(C)C)CC3)nc(N3CCC(F)(F)CC3)nc2cc1OCCCN1CCCC1` cannot be ordered by Emax: < 94% for the first, 68% for the second.

With `COc1cc2c(NC3CCN(CCCC(=O)NCCCCCCC(=O)N[C@H](C(=O)N4C[C@H](O)C[C@H]4C(=O)NCc4ccc(-c5scnc5C)cc4)C(C)(C)C)CC3)nc(N3CCC(F)(F)CC3)nc2cc1OCCCN1CCCC1` the Emax was < 20%.
